{"source": "patent US20110218104A1", "about": "“Biodiesel Solvents in Pesticide Compositions” (AUBURN UNIVERSITY, priority 2010, published 2011)", "origin": "cited, not measured here", "details": "Merck Index, 1989"}
{"molecule": "NC(N)=O", "note": "[urea]", "values": [{"measurement": "solubility in glycerin", "result": "considerable solubility"}]}
